The values below come from US8604029B2, “2-[(2-substituted)-indolizin-3-yl]-2-oxo-acetamide derivatives as antifungal agents” (F2G Ltd British Body Corporate, priority 2006, dated 2013).

≈ marks a conversion by molar mass, not a printed value. Some results are limits rather than exact numbers.

One experiment deals with Aspergillus fumigatus. Put plainly: MIC measurement, YAG medium. It is filed as cell-based. The following applies: Aspergillus fumigatus, read-out: MIC A. fumigatus. The protocol:
Between 1 and 5 mgs of compound were accurately weighed out into a sterile Eppendorf tube. The compound was dissolved in DMSO to give a solution containing […]. Tubes were stored at −20° C. until required.
On the day of testing thawed solutions were vortex mixed to ensure homogeneity. 30 μL of solution was removed and added to 570 μL of sterile water in a separate sterile Eppendorf. The thoroughly mixed solution was used to prepare a series of doubling dilutions in water, in a deep well plate. Thirteen replicate plates were prepared using a Minitrak by aspirating 20 μL from each well into eleven clear polystyrene 96 well plates.
Spores of Aspergillus spp. (Aspergillus fumigatus [two strains], Aspergillus terreus [two strains], Aspergillus niger and Aspergillus flavus) were harvested from cultures grown on Sabarauds agar for 5 days, and resuspended in PBS/Tween 80 to approx 1×10^7 cfu/mL. Other filamentous fungi (Absidia corymbifera, Fusarium solani, Rhizomucor, Scedosporium spp., Trichophyton spp.), were grown on Sabarauds agar for 2-10 days and spores/hyphae resuspended in PBS/Tween to give approx 1×10^7 cfu/mL. Candida species (Candida albicans, Candida glabrata, Candida krusei, Candida parapsilosis and Candida tropicalis) were grown on Sabarauds agar, cells were harvested from the agar using a sterile loop and resuspended in PBS/Tween 80 to approx 1×10^6 cfu/mL. Each organism suspension was diluted in RPMI medium, containing 2% glucose and 0.135 M MOPS buffer (pH 7.0) to 0.5-2×10^4 cfu/mL for Aspergillus spp. and other filamentous fungi and 0.5-2×10^3 cfu/mL for yeast. 80 μL of an organism suspension was added to each well of the plate containing drug dilutions.
This produced MIC plates with a drug range 50-0.05 mg/L and organism inocula of 1-2×10^4 cfu/mL for Aspergillus spp. and other filamentous fungi and 1-2×10^3 cfu/mL for yeasts. All plates were incubated for 24-48 hrs at 35° C. Growth was assessed by monitoring the optical density at 485 nm for each well. The MIC of a compound is the lowest drug concentration that inhibits growth of an organism by >80% compared with a drug free control. MICs are recorded as mg/L. Other growth media can be used for susceptibility testing, and the activity of the described compounds can also be assessed in a medium comprising 1% glucose, 1% ammonium chloride and 0.5% yeast extract (YAG medium). To perform MIC tests in this medium, dilutions of compounds are prepared in microtitre plates as described above. Fungal strains to be tested are grown and harvested in an identical manner to that described above, each organism suspension is then diluted in YAG medium to 0.5-2×10^4 cfu/mL for Aspergillus spp. and other filamentous fungi and 0.5-2×10^3 cfu/mL for yeast. 80 μL of an organism suspension was added to each well of the plate containing drug dilutions. This produced MIC plates with a drug range 50-0.05 mg/L and organism inocula of 1-2×10^4 cfu/mL for Aspergillus spp. and other filamentous fungi and 1-2×10^3 cfu/mL for yeasts. All plates were incubated for 24 hrs at 35° C. Growth was assessed by monitoring the optical density at 485 nm for each well. The MIC of a compound is the lowest drug concentration that inhibits growth of an organism by >70% compared with a drug free control. MICs are recorded as mg/L. In cases where the MIC of an organism is […] mg/L the MIC is repeated using a concentration range of 0.5-0.0005 mg/L. MIC tests in YAG medium have more clear-cut endpoints and have slightly lower MICs than those performed in RPMI medium.
The following organisms were tested: Absidia corymbifera, Aspergillus flavus, Aspergillus fumigatus AF293 and AF210, Aspergillus niger, Aspergillus terreus AT4 and AT49, Candida albicans, Candida glabrata, Candida krusei, Candida parapsilosis, Candida tropicalis, Fusarium solani, Rhizomucor sp., Scedosporium apiospermum, Scedosporium prolificans, Trichophyton mentagrophytes, and Trichophyton rubrum.
In the case of `O=C1Cc2cc(NC(=O)C(=O)c3c(-c4ccccc4)cc4ccccn34)ccc2N1` [Example 9, 2-Oxo-N-(2-oxo-2,3-dihydro-1H-indol-5-yl)-2-(2-phenyl-indolizin-3-yl)-acetamide], the MIC (in general, the lowest concentration that inhibits growth of the organism) is more than 10 µg/mL.

The experiment is the same for the next values; noted with them: Aspergillus fumigatus; YAG medium; MIC banded into grades; strain AF293; read-out: MIC A. fumigatus.
Regarding `Cc1cc(OCCOc2ccc(NC(=O)C(=O)c3c(-c4ccccc4)cc4ccccn34)cc2)cc(C)n1` [Example 71, N-{4-[2-(2,6-Dimethyl-pyridin-4-yloxy)-ethoxy]-phenyl}-2-oxo-2-(2-phenyl-indolizin-3-yl)-acetamide], the minimal inhibitory concentration (MIC) is less than 1 µg/mL.

As to `Cc1cc(C)nc(N(C)CCCN(C)c2ccc(NC(=O)C(=O)c3c(-c4ccccc4)cc4ccccn34)cc2)c1` [Example 67, N-[4-({3-[(4,6-dimethyl-pyridin-2-yl)-methyl-amino]-propyl}-methyl-amino)-phenyl]-2-oxo-2-(2-phenyl-indolizin-3-yl)-acetamide], the minimal inhibitory concentration (MIC) is less than 1 µg/mL.

With `Cc1cc(C)nc(N(C)CCN(C)c2ccc(NC(=O)C(=O)c3c(-c4ccccc4)cc4ccccn34)cc2)c1` [Example 55, N-[4-({2-[(4,6-Dimethyl-pyridin-2-yl)-methyl-amino]-ethyl}-methyl-amino)-phenyl]-2-oxo-2-(2-phenyl-indolizin-3-yl)-acetamide], the minimal inhibitory concentration (MIC) is less than 1 µg/mL.

As for `O=C(Nc1ccc(N2CCN(S(=O)(=O)c3cccnc3)CC2)cc1)C(=O)c1c(-c2ccccc2)cc2ccccn12` [Example 51, 2-Oxo-2-(2-phenyl-indolizin-3-yl)-N-{4-[4-(pyridine-3-sulfonyl)-piperazin-1-yl]-phenyl}-acetamide], the minimum inhibitory concentration (MIC) is less than 1 µg/mL.

Consider `CCc1ccnc(N2CCN(c3ccc(NC(=O)C(=O)c4c(-c5ccccc5)cc5ccccn45)cc3)CC2)c1` [Example 75, N-{4-[4-(4-ethyl-pyridin-2-yl)-piperazin-1-yl]-phenyl}-2-oxo-2-(2-phenyl-indolizin-3-yl)-acetamide], for which the minimum inhibitory concentration (MIC) was less than 1 µg/mL.

`Cc1cccc(N2CCN(c3ccc(NC(=O)C(=O)c4c(-c5ccccc5)cc5ccccn45)cc3)CC2)n1` [Example 43, N-{4-[4-(6-Methyl-pyridin-2-yl)-piperazin-1-yl]-phenyl}-2-oxo-2-(2-phenyl-indolizin-3-yl)-acetainide]: the minimal inhibitory concentration (MIC) was less than 1 µg/mL.

On to `Cc1cc(C)nc(N2CCC(O)(c3ccc(NC(=O)C(=O)c4c(-c5ccccc5)cc5ccccn45)cc3)CC2)c1` [Example 79, N-[4-(4-hydroxy-4′,6′-dimethyl-3,4,5,6-tetrahydro-2H-[1,2′]-bipyridinyl-4-yl)-phenyl]-2-oxo-2-(2-phenyl-indolizin-3-yl)-acetamide], for which the MIC is more than 10 µg/mL.

As to `Cc1cc(C)nc(N2CCN(c3ccc(NC(=O)C(=O)c4c(C5CCCCC5)cc5ccccn45)cc3)CC2)c1` [Example 60, 2-(2-Cyclohexyl-indolizin-3-yl)-N-{4-[4-(4,6-dimethyl-pyridin-2-yl)-piperazin-1-yl]-phenyl}-2-oxo-acetamide], the MIC is less than 1 µg/mL.

On to `CC(C)c1ncc(C(C)(C)c2ccc(NC(=O)C(=O)c3c(-c4ccccc4)cc4ccccn34)cc2)n1C` [Example 17, N-{4-[1-(2-Isopropyl--3-methyl-3H-imidazol-4-yl)-1-methyl-ethyl]-phenyl}-2-oxo-2-(2-phenyl-indolizin-3-yl)-acetamide], for which the minimum inhibitory concentration (MIC) was more than 10 µg/mL.

Consider `Cc1cc(C)nc(N2CCCN(c3ccc(NC(=O)C(=O)c4c(-c5ccccc5)cc5ccccn45)cc3)CC2)c1` [Example 54, N-{4-[4-(4,6-Dimethyl-pyridin-2-yl)-[1,4]diazepan-1-yl]-phenyl}-2-oxo-2-(2-phenyl-indolizin-3-yl)-acetamide], for which the MIC is less than 1 µg/mL.

Consider `COCc1cc(NC(=O)C(=O)c2c(-c3ccccc3)cc3ccccn23)ccc1N1CCN(c2cc(C)cc(C)n2)CC1` [Example 81, N-{4-[4-(4,6-Dimethyl-pyridin-2-yl)-piperazin-1-yl]-3-methoxymethyl-phenyl}-2-oxo-2-(2-phenyl-indolizin-3-yl)-acetamide], for which the minimum inhibitory concentration (MIC) is less than 1 µg/mL.

`Cc1c(-c2ccccc2)c2ccccn2c1C(=O)C(=O)Nc1ccc(N2CCOCC2)cc1` [Example 7, 2-(2-methyl-1-phenyl-indolizin-3-yl)-N-(4-morpholin-4-yl-phenyl)-2-oxo-acetamide]: the minimal inhibitory concentration (MIC) is more than 10 µg/mL.

For the molecule `CCc1cccc(N2CCN(c3ccc(NC(=O)C(=O)c4c(-c5ccccc5)cc5ccccn45)cc3)CC2)n1` [Example 73, N-{4-[4-(6-ethyl-pyridin-2-yl)-piperazin-1-yl]-phenyl}-2-oxo-2-(2-phenyl-indolizin-3-yl)-acetamide], the minimum inhibitory concentration (MIC) is less than 1 µg/mL.

For `Cc1cc(C)nc(NCCNc2ccc(NC(=O)C(=O)c3c(-c4ccccc4)cc4ccccn34)cc2)c1` [Example 92, N-{4-[2-(4,6-dimethyl-pyridin-2-yl-amino)-ethylamino]-phenyl}-2-oxo-2-(2-phenyl-indolizin-3-yl)-acetamide], the MIC is less than 1 µg/mL.

In the case of `CC(C)c1nccn1CCOC(=O)C(C)(C)c1cccc(NC(=O)C(=O)c2c(-c3ccccc3)cc3ccccn23)c1` [Example 22, 2-Methyl-2-{3-[2-oxo-2-(2-phenyl-indolizin-3-yl)-acetylamino]-phenyl}-propionic acid 2-(2-isopropyl-imidazol-1-yl)-ethyl ester], the minimal inhibitory concentration (MIC) is more than 10 µg/mL.

Consider `C=C1CCN(c2ccc(NC(=O)C(=O)c3c(-c4cccnc4C)cc4ccccn34)cc2)CC1` [Example 46, N-[4-(4-Methylene-piperidin-1-yl)-phenyl]-2-[2-(2-methyl-pyridin-3-yl)-indolizin-3-yl]-2-oxo-acetamide], for which the minimum inhibitory concentration (MIC) is less than 1 µg/mL.

Consider `CON=C1CCN(c2ccc(NC(=O)C(=O)c3c(-c4ccccc4)cc4ccccn34)cc2)CC1` [Example 2, N-[4-(4-methoxyimino-piperidin-1-yl)-phenyl]-2-oxo-2-(2-phenyl-indolizin-3-yl)-acetamide], for which the minimum inhibitory concentration (MIC) is less than 1 µg/mL.

`CN1/C(=N/c2ccc(NC(=O)C(=O)c3c(-c4ccccc4)cc4ccccn34)cc2)OCC1(C)C` [Example 8, 2-oxo-2-(2-phenyl-indolizin-3-yl)-N-{4-[3,4,4-trimethyl-oxazolidin-(2Z)-ylideneamino]-phenyl}-acetamide]: the MIC is more than 10 µg/mL.

On to `Cc1cc(C)nc(CNc2ccc(NC(=O)C(=O)c3c(-c4ccccc4)cc4ccccn34)cc2)c1` [Example 91, N-{4-[(4,6-Dimethyl-pyridin-2-ylmethyl)-amino]-phenyl}-2-oxo-2-(2-phenyl-indolizin-3-yl)-acetamide], for which the MIC is less than 1 µg/mL.

As for `Cc1cc(C)nc(OCCOc2ccc(NC(=O)C(=O)c3c(-c4ccccc4)cc4ccccn34)cc2)c1` [Example 65, N-{4-[2-(4,6-Dimethyl-pyridin-2-yloxy)-ethoxy]-phenyl}-2-oxo-2-(2-phenyl-indolizin-3-yl)-acetamide], the MIC is less than 1 µg/mL.

Regarding `COCCOc1cc(C)nc(N2CCN(c3ccc(NC(=O)C(=O)c4c(-c5ccccc5)cc5ccccn45)cc3)CC2)c1` [Example 57, N-(4-{4-[4-(2-Methoxy-ethoxy)-6-methyl-pyridin-2-yl]-piperazin-1-yl}-phenyl)-2-oxo-2-(2-phenyl-indolizin-3-yl)-acetamide], the MIC was less than 1 µg/mL.

Regarding `CC(C)c1nc(C(C)(C)c2ccc(NC(=O)C(=O)c3c(-c4ccccc4)cc4ccccn34)cc2)cn1C` [Example 16, N-{4-[1-(2-isopropyl-1-methyl-1H-imidazol-4-yl)-1-methyl-ethyl]-phenyl}-2-oxo-2-(2-phenyl-indolizin-3-yl)-acetamide], the MIC is 1 to 10 µg/mL (≈ 1.98 to 19.8 µM).
